Results: ChEMBL document CHEMBL1201862, “PubChem BioAssay data set” (2004)
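Growth conditions: 96-well plates. Treatment: test compound, 48 hours, 5 concentrations. Analysis: linear interpolation between bracketing concentrations; unreached endpoints set to highest concentration. GI50: concentration for 50% inhibition of growth.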 Active and inactive are the calls of the source. No stated cut-off is given here; in the data, active = GI50 up to about 1.1 µM and inactive = higher.

Legend:
Assay in all cases: NCI-60 cell line screen, 48 h
[1] = tested on: SNB-19
[2] = tested on: MOLT-4
[3] = tested on: A549
[4] = tested on: KM12
[5] = tested on: MDA-MB-231
[6] = tested on: DU-145
[7] = tested on: OVCAR-8
[8] = tested on: SF-268
[9] = tested on: SN12C
[10] = tested on: HT-29
[11] = tested on: UACC-257
[12] = tested on: IGROV-1
[13] = tested on: UO-31
[14] = tested on: OVCAR-4
[15] = tested on: NCI-H23
[16] = tested on: U-251
[17] = tested on: ACHN
[18] = tested on: MDA-MB-435
[19] = tested on: SF-539
[20] = tested on: HCC 2998

Row | Structure (SMILES) | GI50 [1] | GI50 [2] | GI50 [3] | GI50 [4] | GI50 [5] | GI50 [6] | GI50 [7] | GI50 [8] | GI50 [9] | GI50 [10] | GI50 [11] | GI50 [12] | GI50 [13] | GI50 [14] | GI50 [15] | GI50 [16] | GI50 [17] | GI50 [18] | GI50 [19] | GI50 [20]
1 | Cc1ccc2c(O)cc(-c3sc4ccccc4c3C)nc2n1 | 29.9 µM (inactive) | 26.1 µM (inactive) | 22.7 µM (inactive) | 15.7 µM (inactive) | 49.5 µM (inactive) | 22.9 µM (inactive) | 25.2 µM (inactive) | 21.6 µM (inactive) | 29 µM (inactive) | 25.9 µM (inactive) | 32.3 µM (inactive) | 19.8 µM (inactive) | 0.661 µM (active) | 19.1 µM (inactive) |  |  |  |  |  | 
2 | C=CCSc1nc2c(N)ncnc2n1C1OC(CO)C(O)C1O (stereo unspecified) | > 100 µM (inactive) | > 100 µM (inactive) | > 100 µM (inactive) | 80.2 µM (inactive) | > 100 µM (inactive) | > 100 µM (inactive) | > 100 µM (inactive) | > 100 µM (inactive) | > 100 µM (inactive) | > 100 µM (inactive) | > 100 µM (inactive) | > 100 µM (inactive) | > 100 µM (inactive) | > 100 µM (inactive) | > 100 µM (inactive) | > 100 µM (inactive) | > 100 µM (inactive) | > 100 µM (inactive) | > 100 µM (inactive) | 
3 | Cc1ccc(-c2c(C#N)c(-c3ccc([N+](=O)[O-])cc3)c(C#N)c(=O)n2NS(=O)(=O)c2ccc(C)cc2)cc1 | 56.6 µM (inactive) | 19.8 µM (inactive) | 51.9 µM (inactive) | 30.2 µM (inactive) | 61.9 µM (inactive) |  | 49.1 µM (inactive) | 79.3 µM (inactive) | 50 µM (inactive) | 56.4 µM (inactive) | > 100 µM (inactive) | 24.7 µM (inactive) |  | 41.5 µM (inactive) |  | 44.8 µM (inactive) | 51.9 µM (inactive) | 86.9 µM (inactive) | 38.1 µM (inactive) | 29.4 µM (inactive)
4 | O=C1c2cccc(O)c2C(=O)c2cccc(O)c21 [ANTHRARUFIN] | > 100 µM (inactive) | > 100 µM (inactive) | > 100 µM (inactive) | > 100 µM (inactive) |  |  | > 100 µM (inactive) | > 100 µM (inactive) | > 100 µM (inactive) | > 100 µM (inactive) | > 100 µM (inactive) | > 100 µM (inactive) | > 100 µM (inactive) | > 100 µM (inactive) | > 100 µM (inactive) | > 100 µM (inactive) | > 100 µM (inactive) |  | > 100 µM (inactive) | > 100 µM (inactive)
5 | CC(C)(C)c1cc2c3c(c1)C(C(F)(F)F)(C(F)(F)F)O[Te]3(C)OC2(C(F)(F)F)C(F)(F)F | > 100 µM (inactive) | > 100 µM (inactive) | > 100 µM (inactive) | > 100 µM (inactive) |  |  | > 10 µM (inactive) | > 100 µM (inactive) | > 100 µM (inactive) | > 100 µM (inactive) | > 100 µM (inactive) | > 100 µM (inactive) | > 100 µM (inactive) | > 100 µM (inactive) | > 100 µM (inactive) | > 100 µM (inactive) | > 100 µM (inactive) |  | > 100 µM (inactive) | > 100 µM (inactive)
6 | COc1ccc2nc3c(C(=O)NCCN(C)C)cccc3nc2c1 | 6.21 µM (inactive) | 3.63 µM (inactive) | 4.28 µM (inactive) | 5.98 µM (inactive) |  |  | 5.16 µM (inactive) | 7.36 µM (inactive) | 3.41 µM (inactive) | 4.17 µM (inactive) | 3.91 µM (inactive) | 5.61 µM (inactive) | 4.89 µM (inactive) | 6.58 µM (inactive) | 4.73 µM (inactive) | 5 µM (inactive) | 3.94 µM (inactive) |  | 2.51 µM (inactive) | 6.76 µM (inactive)
7 | CCc1nc2c(O)ccc(O)c2nc1C | 18.9 µM (inactive) | 3.65 µM (inactive) | 21.8 µM (inactive) | 17 µM (inactive) |  |  | 10 µM (inactive) | 18.7 µM (inactive) | 16 µM (inactive) | 17.2 µM (inactive) | 17.4 µM (inactive) | 19 µM (inactive) | 19.3 µM (inactive) | 6.75 µM (inactive) | 18.6 µM (inactive) | 16.5 µM (inactive) | 10.7 µM (inactive) |  | 17 µM (inactive) | 24.6 µM (inactive)
8 | CCOC(=O)C=C1CCC2(CC1)OCCO2 | > 100 µM (inactive) | > 100 µM (inactive) | > 100 µM (inactive) | > 100 µM (inactive) |  | > 100 µM (inactive) | > 100 µM (inactive) | > 100 µM (inactive) | > 100 µM (inactive) | > 100 µM (inactive) | > 100 µM (inactive) | > 100 µM (inactive) | > 100 µM (inactive) | > 100 µM (inactive) | > 100 µM (inactive) | > 100 µM (inactive) | > 100 µM (inactive) |  | > 100 µM (inactive) | > 100 µM (inactive)
